Assay results from paper PMC10303363, “Synthesis and Preclinical Evaluation of Novel ^68Ga-Labeled (R)-Pyrrolidin-2-yl-boronic Acid-Based PET Tracers for Fibroblast Activation Protein-Targeted Cancer Imaging” (Pharmaceuticals, 2023).
Where “and” joins values, the source holds several entries; their conditions need not be identical. Equal values may be shown once. Each block holds one compound with its values, some of them ahead of it.

Key:
PREP = settings: cited from earlier work
DPPs = settings: cited from earlier work
FAP [1] = settings: cited from earlier work
FAP [2] = test: FAP inhibition reported by Jansen et al. (literature); assay type: biochemical; settings: from literature IC50 values
bone and muscle = tested on: bone and muscle; design: method as in PMID 30850501, PMID 32332144, PMID 33721173, PMID 23712432, PMID 34620730; settings: mice; cited from earlier work
[3] = tested on: HEK293T:hFAP tumor-bearing mice; test: Ex vivo biodistribution study; assay type: in vivo; settings: 1 h pi; for Adrenal Glands uptake / Blood uptake / Bone uptake / Brain uptake / Fat uptake / Heart uptake / Kidneys uptake / Large Intestines uptake / Liver uptake / Lungs uptake / Muscle uptake / Pancreas uptake / Small Intestine uptake / Spleen uptake / Stomach uptake / Testes uptake / Thyroid uptake / Tumor uptake / Tumor/Blood uptake ratio / Tumor/Bone uptake ratio / Tumor/Kidney uptake ratio / Tumor/Muscle uptake ratio: n = 4
Protocol: (§1) Imaging and biodistribution studies were performed using immunodeficient male NRG (NOD.Cg-Rag1tm1Mom Il2rgtm1Wjl/SzJ) mice following previously reported procedures. All experiments were conducted according to the guidelines established by the Canadian Council on Animal Care and approved by Animal Ethics Committee of the University of British Columbia. The mice were subcutaneously inoculated with 7.5 × 10^6 HEK293T:hFAP cells in the left dorsal flank. When the tumors grew to 6–8 mm in diameter, the mice were used for PET/CT imaging and biodistribution studies.
For the biodistribution studies, the mice were injected with ~1–2 MBq of the ^68Ga-labeled tracer, using the exact procedures as described above. At 1 h pi, the mice were euthanized by CO2 inhalation. Blood was withdrawn by a cardiac puncture, and the organs/tissues of interest were collected, weighed and counted using a Perkin Elmer (Waltham, MA, USA) Wizard2 2480 automatic gamma counter. The uptake values in percent of injected dose per gram of tissues (%ID/g) for the different tracers were calculated.
(§2) For blocking studies, HEK293T:hFAP tumor-bearing mice were co-injected [^68Ga]Ga-SB04028 with an excess of FAPI-04 (0.5 mg/mouse) as a competitor. Imaging and biodistribution studies were performed at 1 h pi similar to the unblocked mice.

[4] = tested on: HEK293T:hFAP tumor xenograft; test: PET/CT imaging; assay type: in vivo, mice; settings: 1 h pi; for tumor on PET/CT image: HEK293T:hFAP tumor xenograft, unblocked
Protocol: as §1
The PET/CT imaging experiments were carried out using a Siemens Inveon micro PET/CT scanner (Knoxville, TN, USA). Tumor-bearing mice were injected with ~4 to 6 MBq of ^68Ga-labeled tracer through a lateral caudal tail vein under 2.5% isoflurane in oxygen anesthesia, followed by recovery and free roaming in their cage during the uptake period. A 10 min localization CT scan was acquired using 3 overlapping positions to cover the entire mouse. The CT scan was used for the attenuation and scatter correction, and anatomical localization. A list mode acquisition was then performed for 15 min at 1 h pi with the mouse under isoflurane sedation. The images were reconstructed using 3D OSEM/MAP iterative methods.
as §2

[5] = In vivo stability study (radio-HPLC of plasma and urine); design: species or system mice; settings: 15 min pi; for fraction of tracer remaining intact in plasma / fraction of tracer remaining intact in urine: male NRG mice, n = 3
Protocol: In vivo stability studies were performed using healthy (non-tumor-bearing) male NRG mice following previously reported procedures. Briefly, [^68Ga]Ga-SB02055 (6.32 ± 0.16 MBq) and [^68Ga]Ga-SB04028 (9.90 ± 0.26 MBq) were injected via the lateral caudal vein into the mice (n = 3). At 15 min pi, the mice were sedated and euthanized, and urine and blood were collected. The blood was processed to obtain plasma by adding 0.5 mL of acetonitrile to 0.5–0.8 mL of whole blood, then vortexing and centrifuging the resulting mixture on a benchtop mini-centrifuge (Fisherbrand™ Mini-Centrifuge 100–240 V, 50/60 Hz Universal Plug) for 20 min. The supernatant was collected and filtered to give the blood plasma. The plasma and urine samples were analyzed via radio-HPLC by using the same conditions as those used for quality control of these ^68Ga-labeled radioligands.

[6] = tested on: FAP-positive SK-Mel-187 melanoma xenograft; design: method as in PMID 25633335; settings: in vitro; cited from earlier work
tumor = tested on: tumor; design: method as in doi:10.1158/1538-7445.AM2022-3303; settings: up to 168 h pi; cited from earlier work
[7] = tested on: HEK-mFAP murine tumor model; design: method as in doi:10.1158/1538-7445.AM2022-3303; settings: single dose; cited from earlier work
[8] = design: method as in PMID 35631416; settings: patients, after administrating 740 MBq; cited from earlier work
[9] = HEK293T:hFAP tumor-bearing male NRG mice, unblocked
[10] = HEK293T:hFAP tumor-bearing mice
[11] = HEK293T:hFAP tumor-bearing mice, blocked: co-injected with FAPI-04 (0.5 mg/mouse)

fold higher FAP binding affinity than N-(4-quinolinoyl)-Gly-(2-cyanopyrrolidine) (FAP [2]): 2.8 fold
Compound: O=C(NCC(=O)N1CCC[C@H]1B(O)O)c1ccnc2ccccc12 [N-(4-quinolinoyl)-Gly-boroPro]
selectivity over PREP (PREP): ~ 3 fold | selectivity over DPPs (DPPs): > 10^3 | IC50 (FAP [1]): 3.7 ± 0.2 nM

Compound: N#C[C@@H]1CC(F)(F)CN1C(=O)CNC(=O)c1ccnc2ccc(OCCCN3CCN(C(=O)CN4CCN(CC(=O)[O-])CCN(CC(=O)[O-])CCN(CC(=O)[O-])CC4)CC3)cc12.[68Ga+3] [[^68Ga]Ga-FAPI-04]
uptake in the bone and muscle (bone and muscle): high uptake

Adrenal Glands uptake [3, 9]: 0.56 ± 0.89 %ID/g | Blood uptake [3, 9]: 0.60 ± 0.04 %ID/g | Bone uptake [3, 9]: 0.45 ± 0.12 %ID/g | Brain uptake [3, 9]: 0.02 ± 0.00 %ID/g | Fat uptake [3, 9]: 0.06 ± 0.02 %ID/g | Heart uptake [3, 9]: 0.17 ± 0.01 %ID/g | Kidneys uptake [3, 9]: 2.29 ± 0.43 %ID/g | Large Intestines uptake [3, 9]: 0.11 ± 0.03 %ID/g | Liver uptake [3, 9]: 1.49 ± 0.11 %ID/g | Lungs uptake [3, 9]: 0.42 ± 0.04 %ID/g | Muscle uptake [3, 9]: 0.12 ± 0.02 %ID/g | Pancreas uptake [3, 9]: 0.13 ± 0.02 %ID/g | Small Intestine uptake [3, 9]: 0.64 ± 0.10 %ID/g | Spleen uptake [3, 9]: 0.21 ± 0.08 %ID/g | Stomach uptake [3, 9]: 0.11 ± 0.05 %ID/g | Testes uptake [3, 9]: 0.16 ± 0.03 %ID/g | Thyroid uptake [3, 9]: 0.26 ± 0.02 %ID/g | Tumor uptake [3, 9]: 6.38 ± 0.45 %ID/g | Tumor/Blood uptake ratio [3, 9]: 10.7 ± 1.29 | Tumor/Bone uptake ratio [3, 9]: 14.9 ± 3.34 | Tumor/Kidney uptake ratio [3, 9]: 2.87 ± 0.59 | Tumor/Muscle uptake ratio [3, 9]: 52.6 ± 5.86
Compound: CC(NC(=O)c1ccc(CNC(=O)CN2CCN(CC(=O)[O-])CCN(CC(=O)[O-])CCN(CC(=O)[O-])CC2)cc1)C(=O)N1CCCC1B(O)O.[68Ga+3] (centres unmarked) [[^68Ga]Ga-PNT6555, reference compound]

Adrenal Glands uptake [3, 9]: 1.17 ± 1.13 %ID/g | Blood uptake [3, 9]: 3.13 ± 1.25 %ID/g | Bone uptake [3, 9]: 1.14 ± 0.37 %ID/g | Brain uptake [3, 9]: 0.05 ± 0.02 %ID/g | Fat uptake [3, 9]: 0.16 ± 0.05 %ID/g | Heart uptake [3, 9]: 1.23 ± 0.48 %ID/g | Kidneys uptake [3, 9]: 1.74 ± 0.95 %ID/g | Large Intestines uptake [3, 9]: 0.56 ± 0.24 %ID/g | Liver uptake [3, 9]: 0.94 ± 0.27 %ID/g | Lungs uptake [3, 9]: 1.20 ± 0.35 %ID/g | Muscle uptake [3, 9]: 0.63 ± 0.20 %ID/g | Pancreas uptake [3, 9]: 2.07 ± 0.83 %ID/g | Small Intestine uptake [3, 9]: 0.80 ± 0.29 %ID/g | Spleen uptake [3, 9]: 0.85 ± 0.27 %ID/g | Stomach uptake [3, 9]: 0.53 ± 0.36 %ID/g | Testes uptake [3, 9]: 0.26 ± 0.10 %ID/g | Thyroid uptake [3, 9]: 1.49 ± 0.47 %ID/g | Tumor uptake [3, 9]: 1.08 ± 0.37 %ID/g | Tumor/Blood uptake ratio [3, 9]: 0.35 ± 0.03 | Tumor/Bone uptake ratio [3, 9]: 0.95 ± 0.06 | Tumor/Kidney uptake ratio [3, 9]: 0.67 ± 0.15 | Tumor/Muscle uptake ratio [3, 9]: 1.72 ± 0.19 | fold lower tumor uptake than [68Ga]Ga-PNT6555 [3, 10]: ~ 6 fold | fraction of tracer remaining intact in plasma [5]: no intact | fraction of tracer remaining intact in urine [5]: 93.5 ± 0.91% and > 93% | plasma fraction of unidentified highly hydrophilic 68Ga-labeled species ([5]; mouse plasma): > 99%
Compound: O=C([O-])CN1CCN(CC(=O)[O-])CCN(CC(=O)N2CCN(CCCOc3ccc4nccc(C(=O)NCC(=O)N5CCCC5B(O)O)c4c3)CC2)CCN(CC(=O)[O-])CC1.[68Ga+3] (centres unmarked) [[^68Ga]Ga-SB02055]
tumor on PET/CT image [4]: negligible

Adrenal Glands uptake [3, 9]: 0.14 ± 0.10 %ID/g | Blood uptake [3, 9]: 0.97 ± 0.03 %ID/g | Bone uptake [3, 9]: 0.24 ± 0.09 %ID/g | Brain uptake [3, 9]: 0.02 ± 0.00 %ID/g | Fat uptake [3, 9]: 0.07 ± 0.01 %ID/g | Heart uptake [3, 9]: 0.24 ± 0.02 %ID/g | Kidneys uptake [3, 9]: 2.10 ± 0.33 %ID/g | Large Intestines uptake [3, 9]: 0.13 ± 0.03 %ID/g | Liver uptake [3, 9]: 0.32 ± 0.03 %ID/g | Lungs uptake [3, 9]: 0.59 ± 0.04 %ID/g | Muscle uptake [3, 9]: 0.13 ± 0.01 %ID/g | Pancreas uptake [3, 9]: 0.18 ± 0.02 %ID/g | Small Intestine uptake [3, 9]: 0.34 ± 0.02 %ID/g | Spleen uptake [3, 9]: 0.25 ± 0.04 %ID/g | Stomach uptake [3, 9]: 0.06 ± 0.01 %ID/g | Testes uptake [3, 9]: 0.18 ± 0.02 %ID/g | Thyroid uptake [3, 9]: 0.35 ± 0.00 %ID/g | Tumor uptake [3, 9]: 10.1 ± 0.42 %ID/g | Tumor/Blood uptake ratio [3, 9]: 10.4 ± 0.70 | Tumor/Bone uptake ratio [3, 9]: 48.1 ± 20.5 | Tumor/Kidney uptake ratio [3, 9]: 4.89 ± 0.72 | Tumor/Muscle uptake ratio [3, 9]: 79.9 ± 7.50 | fold higher tumor uptake compared to [68Ga]Ga-PNT6555 [3, 10]: ~ 1.5 fold and > 1.5 fold | Adrenal Glands uptake [3, 11]: 0.09 ± 0.06 %ID/g | Blood uptake [3, 11]: 0.49 ± 0.13 %ID/g | Bone uptake [3, 11]: 0.01 ± 0.00 %ID/g | Brain uptake [3, 11]: 0.02 ± 0.00 %ID/g | Fat uptake [3, 11]: 0.14 ± 0.13 %ID/g | Heart uptake [3, 11]: 0.11 ± 0.00 %ID/g | Kidneys uptake [3, 11]: 2.53 ± 0.57 %ID/g | Large Intestines uptake [3, 11]: 0.08 ± 0.03 %ID/g | Liver uptake [3, 11]: 0.30 ± 0.05 %ID/g | Lungs uptake [3, 11]: 0.78 ± 0.37 %ID/g | Muscle uptake [3, 11]: 0.66 ± 0.12 %ID/g | Pancreas uptake [3, 11]: 0.09 ± 0.02 %ID/g | Small Intestine uptake [3, 11]: 0.34 ± 0.04 %ID/g | Spleen uptake [3, 11]: 0.18 ± 0.02 %ID/g | Stomach uptake [3, 11]: 0.03 ± 0.00 %ID/g | Testes uptake [3, 11]: 0.12 ± 0.01 %ID/g | Thyroid uptake [3, 11]: 0.14 ± 0.01 %ID/g | Tumor uptake [3, 11]: 0.30 ± 0.04 %ID/g | Tumor/Blood uptake ratio [3, 11]: 0.63 ± 0.09 | Tumor/Bone uptake ratio [3, 11]: 33.9 ± 13.3 | Tumor/Kidney uptake ratio [3, 11]: 0.12 ± 0.03 | Tumor/Muscle uptake ratio [3, 11]: 0.46 ± 0.06 | fraction of tracer remaining intact in plasma [5]: 46.6 ± 0.21% | fraction of tracer remaining intact in urine [5]: 53.6 ± 7.11% and > 54%
Compound: CC(NC(=O)c1ccnc2ccc(OCCCN3CCN(C(=O)CN4CCN(CC(=O)[O-])CCN(CC(=O)[O-])CCN(CC(=O)[O-])CC4)CC3)cc12)C(=O)N1CCCC1B(O)O.[68Ga+3] (centres unmarked) [[^68Ga]Ga-SB04028]
reduction of average tumor uptake upon co-injection with FAPI-04 ([3]; FAPI-04 0.5 mg/mouse, HEK293T:hFAP tumor-bearing mice): ~ 97% | tumor uptake on PET/CT image upon co-injection with FAPI-04 ([4]; FAPI-04 0.5 mg/mouse): reduced the tumor uptake to the background level | tumor on PET/CT image [4]: clear visualization

Compound: O=C(NCC(=O)N1CCC[C@H]1B(O)O)c1ccc([125I])cc1 [[^125I]MIP-1232]
accumulation in FAP-positive SK-Mel-187 melanoma xenograft [6]: strongly accumulate

Compound: CC(NC(=O)c1ccc(CNC(=O)CN2CCN(CC(=O)[O-])CCN(CC(=O)[O-])CCN(CC(=O)[O-])CC2)cc1)C(=O)N1CCCC1B(O)O.[177Lu+3] (centres unmarked) [[^177Lu]Lu-PNT6555]
tumor retention (tumor): > 10 %ID/g | anti-tumor efficacy [7]: dose-dependent anti-tumor efficacy

Compound: CC(NC(=O)c1ccc(CNC(=O)CN2CCN(CC(=O)[O-])CCN(CC(=O)[O-])CCN(CC(=O)[O-])CC2)cc1)C(=O)N1CCCC1B(O)O.[225Ac+3] (centres unmarked) [[^225Ac]Ac-PNT6555]
anti-tumor efficacy [7]: dose-dependent anti-tumor efficacy

Compound: [^99mTc]Tc-HYNIC-D-Ala-boroPro [[^99mTc]Tc-iFAP]
effective dose [8]: 2.3 ± 0.4 mSv | mean radiation equivalent dose for the kidney [8]: 5.2 ± 0.8 mSv
